Source: ChEMBL document CHEMBL5346969 (J Med Chem, 2023)
pIC50: −log10 of the molar value. Activity calls are given as the source filed them. The rule behind the calls is not given here.

Key:
MDA-MB-231 [1] = test: Induction of ferroptosis in human MDA-MB-231 cells assessed as cell viability incubated for 72 hrs in presence of apoptosis inhibitor, Z-VAD-FMK by MTT assay; assay type: functional, cell-based; conditions: MDA-MB-231, 72 h
HeLa = test: Antiproliferative activity against human HeLa cells assessed as inhibition of cell viability at 1 uM incubated for 72 hrs by MTT assay; assay type: functional, cell-based
MDA-MB-231 [2] = test: Induction of ferroptosis in human MDA-MB-231 cells assessed as cell viability incubated for 72 hrs in presence of N-acetyl-L-cysteine by MTT assay; assay type: functional, cell-based; conditions: MDA-MB-231, 72 h
[3] = Toxicity in immunodeficient BALB/c mouse xenografted with human MDA-MB-231 cells assessed as morphological changes in heart at 20 mg/kg, ip for 21 days by H and E staining based microscopy; assay type: organism-based; conditions: in vivo, 504 h, time 21 day
MDA-MB-231 [4] = test: Induction of ferroptosis-mediated morphological changes in human MDA-MB-231 cells assessed as round and vacuolated cells at 20 nM incubated for 6 hrs by TEM analysis; assay type: functional, cell-based
[5] = Toxicity in immunodeficient BALB/c mouse assessed as change in AST level at 20 mg/kg, ip for 14 days by biochemical analysis; assay type: organism-based; conditions: in vivo, 336 h, time 14 day
MDA-MB-231 [6] = test: Induction of ferroptosis-mediated morphological changes in human MDA-MB-231 cells assessed as decreased or absence of mitochondrial crests at 20 nM incubated for 6 hrs by TEM analysis; assay type: functional, cell-based
MDA-MB-468 = test: Antiproliferative activity against human MDA-MB-468 cells assessed as inhibition of cell viability at 1 uM incubated for 72 hrs by CCK-8 assay; assay type: functional, cell-based
MDA-MB-231 [7] = test: Induction of ferroptosis in human MDA-MB-231 cells with assessed as change in FTH1 protein expression level at 5 to 20 nM incubated for 8 hrs in presence of ferroptosis inhibitor, ferrostatin-1 by Western blot analysis; assay type: functional, cell-based; conditions: dose 5-20 nM
MDA-MB-231 [8] = test: Induction of ferroptosis in human MDA-MB-231 cells assessed as cell viability incubated for 72 hrs in presence of deferoxamine by MTT assay; assay type: functional, cell-based; conditions: MDA-MB-231, 72 h
[9] = Toxicity in immunodeficient BALB/c mouse assessed as bone marrow suppression by measuring WBC level at 20 mg/kg, ip for 14 days by whole blood analysis; assay type: organism-based; conditions: in vivo, 336 h, time 14 day
[10] = Toxicity in immunodeficient BALB/c mouse assessed as bone marrow suppression by measuring RBC level at 20 mg/kg, ip for 14 days by whole blood analysis; assay type: organism-based, Erythrocyte; conditions: in vivo, 336 h, time 14 day
[11] = Toxicity in immunodeficient BALB/c mouse assessed as bone marrow suppression by measuring HGB level at 20 mg/kg, ip for 14 days by whole blood analysis; assay type: organism-based; conditions: in vivo, 336 h, time 14 day
[12] = Toxicity in immunodeficient BALB/c mouse assessed as change in LDH level at 20 mg/kg, ip for 14 days by biochemical analysis; assay type: organism-based; conditions: in vivo, 336 h, time 14 day
BT-549 = test: Antiproliferative activity against human BT-549 cells assessed as inhibition of cell viability incubated for 72 hrs by MTT assay; assay type: functional, cell-based; conditions: BT-549, 72 h
MDA-MB-231 [13] = test: Induction of ferroptosis in human MDA-MB-231 cells assessed as cell viability at 1 uM incubated for 72 hrs in presence of deferoxamine by MTT assay; assay type: functional, cell-based
MDA-MB-231 [14] = test: Antiproliferative activity against human MDA-MB-231 cells assessed as inhibition of cell viability at 1 uM incubated for 72 hrs by MTT assay; assay type: functional, cell-based
[15] = target: T1, Phospholipid hydroperoxide glutathione peroxidase GPX4 (Homo sapiens) (UniProt P36969); test: Binding affinity to GPX4 (unknown origin) at Cys66 residue assessed as change in mass of single charged b5+ ion at 100 uM incubated for 1.5 hrs by SDS-PAGE based LC-MS/MS analysis
T1 sequence (whole entry): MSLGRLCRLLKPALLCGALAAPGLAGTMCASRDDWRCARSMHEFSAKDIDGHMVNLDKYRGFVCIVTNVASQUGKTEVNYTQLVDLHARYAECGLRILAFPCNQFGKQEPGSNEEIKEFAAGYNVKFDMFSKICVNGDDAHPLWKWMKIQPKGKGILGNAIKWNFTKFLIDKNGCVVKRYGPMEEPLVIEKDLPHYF

[16] = target: T1, Phospholipid hydroperoxide glutathione peroxidase GPX4 (Homo sapiens); test: Binding affinity to GPX4 (unknown origin) at Cys66 residue assessed as change in mass of single charged y5+ ion at 100 uM incubated for 1.5 hrs by SDS-PAGE based LC-MS/MS analysis
[17] = target: T1, Phospholipid hydroperoxide glutathione peroxidase GPX4 (Homo sapiens); test: Binding affinity to GPX4 (unknown origin) at Cys66 residue assessed as change in mass of single charged y6+ ion at 100 uM incubated for 1.5 hrs by SDS-PAGE based LC-MS/MS analysis
[18] = target: T1, Phospholipid hydroperoxide glutathione peroxidase GPX4 (Homo sapiens); test: Binding affinity to GPX4 in human MDA-MB-231 cells assessed as decrease in apprent aggregation temperature at 1 uM incubated for 2 hrs by CESTA analysis (Rvb=58.3 +/- 0.7 degreeC); assay type: cell-based
MDA-MB-231 [19] = test: Induction of ferroptosis in human MDA-MB-231 cells with assessed as reduction in cell viability at 5 to 20 nM incubated for 4 to 10 hrs by MTT assay; assay type: functional, cell-based; conditions: dose 5-20 nM, time 4-10 hrs
[20] = target: T1, Phospholipid hydroperoxide glutathione peroxidase GPX4 (Homo sapiens); test: Binding affinity to GPX4 (unknown origin) at Cys66 residue assessed as change in mass of single charged y2+ ion at 100 uM incubated for 1.5 hrs by SDS-PAGE based LC-MS/MS analysis
MDA-MB-231 [21] = test: Induction of ferroptosis in siRNA mediated GPX4 knockdown human MDA-MB-231 cells with assessed as change in xCT protein expression level at 20 nM incubated for 8 hrs by Western blot analysis; assay type: functional, cell-based
[22] = Acute toxicity in ICR mouse assessed as lethality at 200 to 488 mg/kg,ip and measured after 14 days; assay type: organism-based; conditions: in vivo, dose 200-488 mg/kg, time 14 day
MDA-MB-231 [23] = test: Induction of ferroptosis in siRNA mediated GPX4 knockdown human MDA-MB-231 cells with assessed as intracellular lipid peroxidase at 20 nM incubated for 8 hrs by C11-BODIPY-581/591 staining based confocal laser microscopy; assay type: functional, cell-based
[24] = AUCt in rat at 10 mg/kg, ip and measured upto 24 hrs by LC-MS/MS analysis; assay type: ADME, organism-based; set-up: dose 10 mg/kg, time < 24 hrs, route ip; conditions: in vivo
[25] = Tmax in rat at 10 mg/kg, ip and measured upto 24 hrs by LC-MS/MS analysis; assay type: ADME, organism-based; conditions: in vivo
MDA-MB-231 [26] = test: Induction of ferroptosis in human MDA-MB-231 cells with assessed as upregulation of GPX4 protein expression level at 5 to 20 nM incubated for <6 hrs by Western blot analysis; assay type: functional, cell-based; conditions: dose 5-20 nM
[27] = target: T1, Phospholipid hydroperoxide glutathione peroxidase GPX4 (Homo sapiens); test: Binding affinity to GPX4 in human MDA-MB-231 cells assessed as reduction in thermal stability at 1 uM incubated for 2 hrs by CESTA analysis; assay type: cell-based
[28] = target: T1, Phospholipid hydroperoxide glutathione peroxidase GPX4 (Homo sapiens); test: Binding affinity to GPX4 (unknown origin) at Cys66 residue assessed as change in mass of single charged b4+ ion at 100 uM incubated for 1.5 hrs by SDS-PAGE based LC-MS/MS analysis
[29] = Clearance in rat at 10 mg/kg, ip and measured upto 24 hrs by LC-MS/MS analysis; assay type: ADME, organism-based; conditions: in vivo
[30] = Half life in rat at 10 mg/kg, ip and measured upto 24 hrs by LC-MS/MS analysis; assay type: ADME, organism-based; conditions: in vivo

## COc1cc(N(C(=O)CBr)c2ccc3c(c2)OCCO3)cc(OC)c1F
MDA-MB-231 [1]
  pIC50: 7.52
HeLa
  Activity: inactive
MDA-MB-231 [2]
  pIC50: < 4.70
[3]
  Activity: Non-Toxic
MDA-MB-231 [4]
  Activity: Active
[5]
  Activity: Toxic
MDA-MB-231 [6]
  Activity: Active
MDA-MB-468
  Activity: Active
MDA-MB-231 [7]
  Activity: inactive
MDA-MB-231 [8]
  pIC50: 5.73
[9]
  Activity: Toxic
[10]
  Activity: Toxic
[11]
  Activity: Toxic
[12]
  Activity: Toxic
BT-549
  pIC50: 7.47
MDA-MB-231 [13]
  Activity: Active
MDA-MB-231 [14]
  Activity: Active

## COc1cc(N(C(=O)CCl)c2ccc3c(c2)OCCO3)cc(OC)c1F
MDA-MB-231 [1]
  pIC50: 7.51
[15]
  Activity: inactive
[16]
  Activity: inactive
HeLa
  Activity: inactive
MDA-MB-231 [2]
  pIC50: < 4.70
[3]
  Activity: Non-Toxic
MDA-MB-231 [4]
  Activity: Active
[5]
  Activity: Toxic
[17]
  Activity: inactive
MDA-MB-231 [6]
  Activity: Active
MDA-MB-468
  Activity: Active
[18]
  T: 51.8 °C
MDA-MB-231 [19]
  Activity: Dose-Dependent Effect
[20]
  Activity: inactive
MDA-MB-231 [7]
  Activity: inactive
MDA-MB-231 [21]
  Activity: inactive
[22]
  LD50 at 336 h: 338 mg/kg
MDA-MB-231 [8]
  pIC50: 5.59
MDA-MB-231 [23]
  Activity: Active
[24]
  AUCt: 12100 ng·h/mL
[25]
  Tmax: 0.85 h
MDA-MB-231 [26]
  Activity: Active
[12]
  Activity: Toxic
[27]
  Activity: Active
BT-549
  pIC50: 7.12
[28]
  Activity: inactive
[29]
  CL: 13.8 mL/min/kg
[30]
  t1/2: 1.9 h
MDA-MB-231 [13]
  Activity: Active
MDA-MB-231 [14]
  Activity: Active
